Activity calls are given as the source filed them. No cut-off for these calls is given here.
Assays:
[1] = molecular target: T1, RAC-beta serine/threonine-protein kinase (Homo sapiens, UniProt P31751); test: Inhibition of Akt2 by cell-based assay
[2] = molecular target: T2, RAC-alpha serine/threonine-protein kinase (Homo sapiens, UniProt P31749); test: Inhibition of Akt1 by cell-based assay
[3] = Inhibition of SGK
[4] = molecular target: T2, RAC-alpha serine/threonine-protein kinase; test: Inhibition of Akt1
[5] = molecular target: T1, RAC-beta serine/threonine-protein kinase; test: Inhibition of Akt2
[6] = Inhibition of PKC
[7] = Inhibition of PKA
Mus musculus [8] = test: Inhibition of Akt2 in mouse lung at 50 mg/kg, ip administered three times a day after 10 hrs by IP kinase assay; format: functional; parameters: scale not given: the % may be the effect or the level left; details: route intraperitoneal
Mus musculus [9] = test: Inhibition of Akt1 in mouse lung at 50 mg/kg, ip administered three times a day after 16 hrs by IP kinase assay; format: functional; parameters: scale not given: the % may be the effect or the level left; details: route intraperitoneal
[10] = Half life in rat; format: ADME, organism-based; details: in vivo
Mus musculus [11] = test: Inhibition of Akt1 in mouse lung at 50 mg/kg, ip administered three times a day after 10 hrs by IP kinase assay; format: functional; parameters: scale not given: the % may be the effect or the level left; details: route intraperitoneal
Mus musculus [12] = test: Inhibition of AKT2 in A2780 cells xenografted mouse tumor tissue at 50 mg/kg, twice daily after 2 hrs by IP kinase assay; format: functional; details: route intraperitoneal
[13] = Drug concentration in mouse blood at 50 mg/kg, ip administered three times a day after 16 hrs; format: ADME, organism-based; parameters: dose 50 mg/kg, route intraperitoneal; details: whole blood, read-out: Drug uptake
Mus musculus [14] = test: Inhibition of Akt1 in mouse lung at 50 mg/kg, ip administered three times a day after 24 hrs by IP kinase assay; format: functional; parameters: scale not given: the % may be the effect or the level left; details: route intraperitoneal
Mus musculus [15] = test: Inhibition of Akt2 in mouse lung at 50 mg/kg, ip administered three times a day after 16 hrs by IP kinase assay; format: functional; parameters: scale not given: the % may be the effect or the level left; details: route intraperitoneal
[16] = molecular target: RAC-gamma serine/threonine-protein kinase (Homo sapiens, UniProt Q9Y243); test: Inhibition of Akt3
RAC-gamma serine/threonine-protein kinase, sequence (Q9Y243 whole entry): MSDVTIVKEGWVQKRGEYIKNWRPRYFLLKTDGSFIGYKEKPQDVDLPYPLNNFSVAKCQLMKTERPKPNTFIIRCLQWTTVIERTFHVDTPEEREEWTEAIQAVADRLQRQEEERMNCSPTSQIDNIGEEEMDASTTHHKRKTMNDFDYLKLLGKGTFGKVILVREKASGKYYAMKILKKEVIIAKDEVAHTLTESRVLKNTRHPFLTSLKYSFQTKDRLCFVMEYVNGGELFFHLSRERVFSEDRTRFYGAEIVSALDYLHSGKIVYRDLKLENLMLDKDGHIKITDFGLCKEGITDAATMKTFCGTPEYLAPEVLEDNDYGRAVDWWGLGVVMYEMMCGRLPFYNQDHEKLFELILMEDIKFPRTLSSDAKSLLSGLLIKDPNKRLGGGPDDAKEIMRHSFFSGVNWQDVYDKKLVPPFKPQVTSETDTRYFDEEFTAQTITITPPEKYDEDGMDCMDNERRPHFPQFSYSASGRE

[17] = Drug concentration in mouse blood at 50 mg/kg, ip administered three times a day after 10 hrs; format: ADME, organism-based; parameters: dose 50 mg/kg, route intraperitoneal; details: whole blood, read-out: Drug uptake
Mus musculus [18] = test: Inhibition of Akt2 in mouse lung at 50 mg/kg, ip administered three times a day after 24 hrs by IP kinase assay; format: functional; parameters: scale not given: the % may be the effect or the level left; details: route intraperitoneal
[19] = molecular target: Voltage-gated inwardly rectifying potassium channel KCNH2 (Homo sapiens, UniProt Q12809); test: Inhibition of human ERG
Voltage-gated inwardly rectifying potassium channel KCNH2, sequence (Q12809 whole entry): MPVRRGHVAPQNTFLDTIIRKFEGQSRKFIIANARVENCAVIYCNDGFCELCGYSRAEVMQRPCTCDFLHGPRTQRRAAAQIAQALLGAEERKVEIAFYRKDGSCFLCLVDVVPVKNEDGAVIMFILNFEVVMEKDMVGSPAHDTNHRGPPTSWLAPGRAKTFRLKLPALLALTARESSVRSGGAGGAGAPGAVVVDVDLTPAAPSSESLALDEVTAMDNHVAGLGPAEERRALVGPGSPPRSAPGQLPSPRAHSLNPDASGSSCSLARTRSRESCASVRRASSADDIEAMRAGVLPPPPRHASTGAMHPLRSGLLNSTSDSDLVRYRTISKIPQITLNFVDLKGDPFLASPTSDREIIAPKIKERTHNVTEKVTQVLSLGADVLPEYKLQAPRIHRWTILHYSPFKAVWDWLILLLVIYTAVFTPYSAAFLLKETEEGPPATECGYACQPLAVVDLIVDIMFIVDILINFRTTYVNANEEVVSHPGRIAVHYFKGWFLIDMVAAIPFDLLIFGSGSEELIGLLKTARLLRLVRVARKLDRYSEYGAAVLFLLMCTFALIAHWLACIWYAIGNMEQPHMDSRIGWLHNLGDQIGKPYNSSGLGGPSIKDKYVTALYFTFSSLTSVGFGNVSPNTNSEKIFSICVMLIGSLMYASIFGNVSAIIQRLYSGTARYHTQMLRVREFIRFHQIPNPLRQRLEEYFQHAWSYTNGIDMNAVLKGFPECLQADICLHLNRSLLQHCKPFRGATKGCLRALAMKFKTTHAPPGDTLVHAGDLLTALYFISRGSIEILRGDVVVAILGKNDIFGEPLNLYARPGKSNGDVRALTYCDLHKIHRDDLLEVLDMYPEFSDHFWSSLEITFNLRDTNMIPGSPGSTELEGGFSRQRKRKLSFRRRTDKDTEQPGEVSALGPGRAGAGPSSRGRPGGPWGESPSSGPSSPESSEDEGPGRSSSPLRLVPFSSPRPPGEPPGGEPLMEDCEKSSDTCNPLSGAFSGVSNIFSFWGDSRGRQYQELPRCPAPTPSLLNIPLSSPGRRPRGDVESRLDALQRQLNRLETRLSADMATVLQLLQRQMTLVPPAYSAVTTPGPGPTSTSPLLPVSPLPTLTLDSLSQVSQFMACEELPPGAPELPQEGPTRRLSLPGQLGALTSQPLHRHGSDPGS

A2780 = test: Antitumor activity in human A2780 cells xenografted mouse assessed as decrease in tumor weight at 50 mg/kg, sc administered three times a day twice a week for five cycles; format: functional, organism-based; parameters: dose 50 mg/kg
Mus musculus [20] = test: Inhibition of AKT1 in A2780 cells xenografted mouse tumor tissue at 50 mg/kg, twice daily after 2 hrs by IP kinase assay; format: functional; details: route intraperitoneal
Mus musculus [21] = test: Inhibition of AKT1 in A2780 cells xenografted mouse lung tissue at 50 mg/kg, twice daily after 2 hrs by IP kinase assay; format: functional; details: route intraperitoneal
[22] = Partition coefficient, log P of the compound; format: physicochemical; details: octanol/water
Homo sapiens = species on record: Homo sapiens; test: Protein binding in human plasma; details: read-out: PB (converted)
Mus musculus [23] = test: Inhibition of AKT2 in A2780 cells xenografted mouse lung tissue at 50 mg/kg, twice daily after 2 hrs by IP kinase assay; format: functional; details: route intraperitoneal
[24] = Clearance in rat; format: ADME, organism-based; details: in vivo
[25] = Drug concentration in mouse blood at 50 mg/kg, ip administered three times a day after 24 hrs; format: ADME, organism-based; parameters: dose 50 mg/kg, route intraperitoneal; details: whole blood, read-out: Drug uptake
[26] = Distribution coefficient, log D of the compound; format: physicochemical; details: octanol/water

T2 sequence (P31749 whole entry): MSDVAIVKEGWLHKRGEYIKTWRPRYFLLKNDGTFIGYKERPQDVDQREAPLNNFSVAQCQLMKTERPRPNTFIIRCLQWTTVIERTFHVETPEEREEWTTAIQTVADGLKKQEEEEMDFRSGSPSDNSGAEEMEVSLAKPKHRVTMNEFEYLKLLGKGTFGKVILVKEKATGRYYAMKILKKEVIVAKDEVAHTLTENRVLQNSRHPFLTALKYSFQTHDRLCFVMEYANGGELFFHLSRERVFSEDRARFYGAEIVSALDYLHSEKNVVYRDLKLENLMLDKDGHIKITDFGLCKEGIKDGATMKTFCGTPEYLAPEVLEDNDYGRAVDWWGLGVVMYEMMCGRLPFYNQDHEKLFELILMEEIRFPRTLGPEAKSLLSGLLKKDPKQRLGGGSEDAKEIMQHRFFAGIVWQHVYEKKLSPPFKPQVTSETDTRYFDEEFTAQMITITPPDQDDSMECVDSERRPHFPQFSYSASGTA
T1 sequence (P31751 whole entry): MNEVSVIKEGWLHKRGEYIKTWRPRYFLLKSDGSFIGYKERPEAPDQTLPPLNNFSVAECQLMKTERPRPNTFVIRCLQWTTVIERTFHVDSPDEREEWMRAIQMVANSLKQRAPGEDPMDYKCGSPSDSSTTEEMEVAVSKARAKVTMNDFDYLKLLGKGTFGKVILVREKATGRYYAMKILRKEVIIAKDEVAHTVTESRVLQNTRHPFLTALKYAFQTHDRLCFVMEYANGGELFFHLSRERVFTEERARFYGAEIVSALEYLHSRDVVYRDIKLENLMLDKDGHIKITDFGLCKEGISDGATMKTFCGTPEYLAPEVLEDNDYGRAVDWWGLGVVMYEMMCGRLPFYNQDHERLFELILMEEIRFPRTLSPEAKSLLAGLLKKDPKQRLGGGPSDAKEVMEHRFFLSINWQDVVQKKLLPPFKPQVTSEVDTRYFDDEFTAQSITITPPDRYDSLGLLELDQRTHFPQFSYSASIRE

Compound | IC50 [1] [nM] | IC50 [2] [nM] | IC50 [3] [nM] | IC50 [4] [nM] | IC50 [5] [nM] | IC50 [6] [nM] | IC50 [7] [nM] | also measured
CCN(CC)CCNC(=O)c1ccc2nc(-c3ccccc3)c(-c3ccc(CN4CCC(n5c(=O)[nH]c6ccccc65)CC4)cc3)nc2c1 | 730 | 527 |  |  |  |  |  | 
c1ccc(-c2cc(C3CCN(Cc4ccc(-c5nc6ncccc6cc5-c5ccccc5)cc4)CC3)n[nH]2)cc1 |  |  | > 50000 | 470 | 1600 | > 50000 | > 50000 | 
c1ccc(-c2cc3cccnc3nc2-c2ccc(CN3CCC(c4n[nH]c(-c5ccccn5)n4)CC3)cc2)cc1 | 1080 | 83 | > 50000 | 45 | 220 | > 50000 | > 50000 | 
c1ccc(-c2cc3cccnc3nc2-c2ccc(CN3CCC(c4cc(-c5ccncc5)[nH]n4)CC3)cc2)cc1 | 1450 | 369 | > 50000 | 120 | 260 | > 50000 | > 50000 | 
c1ccc(-c2cc3cccnc3nc2-c2ccc(CN3CCC(c4cc(-c5cccnc5)[nH]n4)CC3)cc2)cc1 |  |  | > 50000 | 250 | 900 | > 50000 | > 50000 | 
c1ccc(-c2nc3ccccc3nc2-c2ccc(CN3CCC(c4cc(-c5ccncc5)[nH]n4)CC3)cc2)cc1 |  |  |  | 75 | 1080 |  |  | IC50 [16]: 11300 nM; logD [26]: 2.71

Further compounds by falling IC50 [4], results first:

IC50 [1] [nM] | IC50 [2] [nM] | IC50 [3] [nM] | IC50 [4] [nM] | IC50 [5] [nM] | IC50 [6] [nM] | IC50 [7] [nM] | Compound | also measured
995 | 149 | > 50000 | 44 | 280 | > 50000 | > 50000 | c1ccc(-c2cc3cccnc3nc2-c2ccc(CN3CCC(c4cc(-c5ccccn5)[nH]n4)CC3)cc2)cc1 | 
613 | 132 | > 50000 | 34 | 83 | > 50000 | > 50000 | O=c1ccc(-c2cc(C3CCN(Cc4ccc(-c5nc6ncccc6cc5-c5ccccc5)cc4)CC3)n[nH]2)c[nH]1 | 
981 | 31 | > 50000 | 21 | 160 | > 50000 | > 50000 | c1ccc(-c2cc3ccncc3nc2-c2ccc(CN3CCC(c4n[nH]c(-c5ccccn5)n4)CC3)cc2)cc1 | 
2680 | 21 | > 50000 | 7.4 | 210 | > 50000 | > 50000 | c1ccc(-c2cc3cnccc3nc2-c2ccc(CN3CCC(c4n[nH]c(-c5ccccn5)n4)CC3)cc2)cc1 | 
1480 | 30 | > 50000 | 5.6 | 70 | > 50000 | > 50000 | c1ccc(-c2cc3ncccc3nc2-c2ccc(CN3CCC(c4n[nH]c(-c5ccccn5)n4)CC3)cc2)cc1 | 
266 | 16 | > 50000 | 3.5 | 42 | > 50000 | > 50000 | O=C1N=CC=C2N=C(c3ccc(CN4CCC(c5n[nH]c(-c6ccccn6)n5)CC4)cc3)C(c3ccccc3)=CC12 (configuration not stated) | Activity (Mus musculus [8]): 41%; Activity (Mus musculus [9]): 62%; half-life [10]: 3.8 h; Activity (Mus musculus [11]): 21%; inhibition in vivo at 50 mg/kg (Mus musculus [12]): 54%; concentration at 16 h [13]: 2600 nM; Activity (Mus musculus [14]): 100%; Activity (Mus musculus [15]): 86%; IC50 [16]: 1900 nM; concentration at 10 h [17]: 13000 nM; Activity (Mus musculus [18]): 91%; IC50 [19]: 5610 nM; Activity (A2780): Active; inhibition in vivo at 50 mg/kg (Mus musculus [20]): 95%; inhibition in vivo at 50 mg/kg (Mus musculus [21]): 80%; logP [22]: 3.51; fraction unbound (Homo sapiens): 0.027; inhibition in vivo at 50 mg/kg (Mus musculus [23]): 75%; clearance [24]: 4.6 mL/min/kg; concentration at 24 h [25]: 700 nM
